# Measured values reported in ChEMBL document CHEMBL2203155, “Structure-based discovery of C-2 substituted imidazo-pyrrolopyridine JAK1 inhibitors with improved selectivity over JAK2” (Bioorg Med Chem Lett, 2012).
# Experiments:
# [1] = molecular target: T1, Tyrosine-protein kinase JAK1 (Homo sapiens, UniProt P23458); assay type: cell-based, TF-1
# [2] = Selectivity ratio of Ki for JAK2 kinase domain to Ki for JAK1 kinase domain
# [3] = molecular target: T1, Tyrosine-protein kinase JAK1
# [4] = Oral bioavailability in Sprague-Dawley rat at 2 mg/kg administered as suspension; assay type: ADME, organism-based; details: in vivo
# [5] = AUC in Sprague-Dawley rat at 2 mg/kg, po administered as suspension; assay type: ADME, organism-based; design: dose 2 mg/kg, route oral; details: plasma
# [6] = Half life in Sprague-Dawley rat at 0.4 mg/kg, iv administered as bolus dose; assay type: ADME, organism-based; design: dose 0.4 mg/kg, route intravenous; details: in vivo
# [7] = Volume of distribution at steady state in Sprague-Dawley rat at 0.4 mg/kg, iv administered as bolus dose; assay type: ADME, organism-based; design: dose 0.4 mg/kg, route intravenous; details: in vivo, read-out: Vdss
# [8] = Clearance in Sprague-Dawley rat at 0.4 mg/kg, iv administered as bolus dose; assay type: ADME, organism-based; design: dose 0.4 mg/kg, route intravenous; details: in vivo
# [9] = molecular target: Macrophage colony-stimulating factor 1 receptor (Homo sapiens) (UniProt P07333); assay: Inhibition of CSF1R at 0.1 uM
# Sequence of Macrophage colony-stimulating factor 1 receptor (Homo sapiens) (P07333 whole entry): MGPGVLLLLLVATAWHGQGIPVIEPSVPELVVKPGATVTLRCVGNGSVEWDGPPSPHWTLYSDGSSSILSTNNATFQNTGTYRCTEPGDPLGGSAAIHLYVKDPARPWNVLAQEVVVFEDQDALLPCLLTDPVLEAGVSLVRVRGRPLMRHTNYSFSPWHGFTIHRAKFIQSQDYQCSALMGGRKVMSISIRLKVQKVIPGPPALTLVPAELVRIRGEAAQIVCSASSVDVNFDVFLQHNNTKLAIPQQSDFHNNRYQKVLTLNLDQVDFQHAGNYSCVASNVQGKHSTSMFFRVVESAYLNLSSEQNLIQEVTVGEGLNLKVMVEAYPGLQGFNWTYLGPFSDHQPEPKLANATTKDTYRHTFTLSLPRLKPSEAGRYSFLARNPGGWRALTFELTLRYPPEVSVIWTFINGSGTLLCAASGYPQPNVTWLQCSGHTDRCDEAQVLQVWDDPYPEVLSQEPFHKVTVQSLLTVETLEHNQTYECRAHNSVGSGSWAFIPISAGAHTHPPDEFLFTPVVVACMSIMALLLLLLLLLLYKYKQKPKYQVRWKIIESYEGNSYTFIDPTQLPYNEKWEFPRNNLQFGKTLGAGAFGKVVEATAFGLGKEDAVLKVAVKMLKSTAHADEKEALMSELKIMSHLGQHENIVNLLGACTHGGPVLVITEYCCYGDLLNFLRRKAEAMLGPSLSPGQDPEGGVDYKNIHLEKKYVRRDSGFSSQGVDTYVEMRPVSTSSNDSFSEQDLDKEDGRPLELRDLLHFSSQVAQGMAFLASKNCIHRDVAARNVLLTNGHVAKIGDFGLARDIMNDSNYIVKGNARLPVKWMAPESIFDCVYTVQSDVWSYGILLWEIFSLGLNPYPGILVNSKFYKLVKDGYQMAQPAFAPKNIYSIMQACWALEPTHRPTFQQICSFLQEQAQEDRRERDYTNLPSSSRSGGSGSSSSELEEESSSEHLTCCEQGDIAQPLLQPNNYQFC
# [10] = molecular target: Leucine-rich repeat serine/threonine-protein kinase 2 (Homo sapiens) (UniProt Q5S007); assay: Inhibition of LRRK2 at 0.1 uM
# [11] = molecular target: Cytochrome P450 2D6 (Homo sapiens, UniProt P10635); assay: Inhibition of CYP2D6; assay type: ADME
# Sequence of Cytochrome P450 2D6 (P10635 whole entry): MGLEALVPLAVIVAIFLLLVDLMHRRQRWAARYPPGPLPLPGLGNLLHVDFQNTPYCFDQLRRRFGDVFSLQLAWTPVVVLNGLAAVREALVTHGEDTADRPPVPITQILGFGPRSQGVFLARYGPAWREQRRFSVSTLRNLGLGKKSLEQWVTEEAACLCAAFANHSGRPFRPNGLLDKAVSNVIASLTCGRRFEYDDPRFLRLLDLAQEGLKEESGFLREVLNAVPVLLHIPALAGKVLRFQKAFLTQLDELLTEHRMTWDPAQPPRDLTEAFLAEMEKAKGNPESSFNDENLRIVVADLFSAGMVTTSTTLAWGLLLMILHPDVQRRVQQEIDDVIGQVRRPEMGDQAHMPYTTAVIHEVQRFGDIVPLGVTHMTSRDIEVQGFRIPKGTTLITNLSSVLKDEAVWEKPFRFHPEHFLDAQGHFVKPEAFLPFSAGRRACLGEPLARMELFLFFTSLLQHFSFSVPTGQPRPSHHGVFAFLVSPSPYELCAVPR
# [12] = molecular target: Cytochrome P450 2C19 (Homo sapiens, UniProt P33261); assay: Inhibition of CYP2C19; assay type: ADME
# Sequence of Cytochrome P450 2C19 (P33261 whole entry): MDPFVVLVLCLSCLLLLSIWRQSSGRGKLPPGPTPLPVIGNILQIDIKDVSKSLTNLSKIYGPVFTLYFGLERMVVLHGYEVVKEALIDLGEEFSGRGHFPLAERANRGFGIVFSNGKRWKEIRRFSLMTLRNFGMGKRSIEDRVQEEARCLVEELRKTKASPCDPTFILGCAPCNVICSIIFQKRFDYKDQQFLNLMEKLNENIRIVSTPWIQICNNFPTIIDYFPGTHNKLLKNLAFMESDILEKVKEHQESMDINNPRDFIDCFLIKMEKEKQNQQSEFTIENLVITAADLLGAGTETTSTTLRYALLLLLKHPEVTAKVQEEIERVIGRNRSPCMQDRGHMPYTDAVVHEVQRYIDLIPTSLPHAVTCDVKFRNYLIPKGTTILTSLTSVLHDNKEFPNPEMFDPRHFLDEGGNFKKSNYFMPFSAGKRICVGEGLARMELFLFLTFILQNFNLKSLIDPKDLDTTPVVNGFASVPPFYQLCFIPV
# [13] = molecular target: Cytochrome P450 3A4 (Homo sapiens, UniProt P08684); assay: Inhibition of CYP3A4; assay type: ADME
# Sequence of Cytochrome P450 3A4 (P08684 whole entry): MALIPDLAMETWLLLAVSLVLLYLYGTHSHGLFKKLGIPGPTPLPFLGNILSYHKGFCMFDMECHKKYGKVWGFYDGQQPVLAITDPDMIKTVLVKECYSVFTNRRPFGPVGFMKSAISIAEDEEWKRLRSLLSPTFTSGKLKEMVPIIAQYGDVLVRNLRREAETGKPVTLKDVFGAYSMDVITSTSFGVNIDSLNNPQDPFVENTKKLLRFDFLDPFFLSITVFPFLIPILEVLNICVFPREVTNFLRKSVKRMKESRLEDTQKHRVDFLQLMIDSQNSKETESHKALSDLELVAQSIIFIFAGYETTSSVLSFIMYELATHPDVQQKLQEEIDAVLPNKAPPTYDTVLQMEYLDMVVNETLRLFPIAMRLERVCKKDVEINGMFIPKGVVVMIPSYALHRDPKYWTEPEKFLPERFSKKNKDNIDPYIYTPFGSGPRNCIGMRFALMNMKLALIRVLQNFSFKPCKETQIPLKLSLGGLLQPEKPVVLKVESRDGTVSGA
# [14] = molecular target: Cytochrome P450 2C9 (Homo sapiens, UniProt P11712); assay: Inhibition of CYP2C9; assay type: ADME
# Sequence of Cytochrome P450 2C9 (P11712 whole entry): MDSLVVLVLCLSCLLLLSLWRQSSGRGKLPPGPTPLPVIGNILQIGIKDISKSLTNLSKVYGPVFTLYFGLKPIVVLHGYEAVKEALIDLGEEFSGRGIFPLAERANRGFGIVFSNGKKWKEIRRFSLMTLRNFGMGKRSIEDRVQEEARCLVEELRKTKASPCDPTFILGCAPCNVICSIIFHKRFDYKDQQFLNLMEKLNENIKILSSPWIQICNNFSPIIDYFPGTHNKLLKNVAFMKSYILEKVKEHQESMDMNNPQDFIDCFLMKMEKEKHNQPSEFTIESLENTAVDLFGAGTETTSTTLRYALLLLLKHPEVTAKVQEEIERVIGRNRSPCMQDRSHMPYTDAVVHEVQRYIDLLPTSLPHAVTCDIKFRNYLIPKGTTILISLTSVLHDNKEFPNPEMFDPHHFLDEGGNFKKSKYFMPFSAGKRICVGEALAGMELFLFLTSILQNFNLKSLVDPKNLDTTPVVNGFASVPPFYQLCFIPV
# [15] = molecular target: T2, Cytochrome P450 1A2 (Homo sapiens, UniProt P05177); assay: Inhibition of CYP1A2; assay type: ADME
# T2 sequence (P05177 whole entry): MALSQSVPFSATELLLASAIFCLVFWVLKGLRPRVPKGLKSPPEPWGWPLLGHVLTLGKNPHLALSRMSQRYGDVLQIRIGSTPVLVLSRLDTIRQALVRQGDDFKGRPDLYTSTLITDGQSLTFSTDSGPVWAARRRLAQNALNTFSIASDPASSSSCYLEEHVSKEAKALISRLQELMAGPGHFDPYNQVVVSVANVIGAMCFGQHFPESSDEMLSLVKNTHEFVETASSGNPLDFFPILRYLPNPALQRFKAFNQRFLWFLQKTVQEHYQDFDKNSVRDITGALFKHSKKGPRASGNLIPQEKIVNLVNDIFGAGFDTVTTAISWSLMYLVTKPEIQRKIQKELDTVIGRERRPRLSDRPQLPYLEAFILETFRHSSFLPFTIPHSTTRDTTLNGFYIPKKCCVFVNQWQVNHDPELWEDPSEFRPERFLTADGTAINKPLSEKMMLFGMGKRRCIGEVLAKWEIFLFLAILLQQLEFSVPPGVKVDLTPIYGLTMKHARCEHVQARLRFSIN
# [16] = Apparent permeability from apical to basal side of MDCK cells; assay type: ADME, cell-based, Canis lupus familiaris; details: dog
# [17] = Aqueous solubility of the compound; assay type: physicochemical; details: buffer
# T1 sequence (P23458 whole entry, the tested form may be a part): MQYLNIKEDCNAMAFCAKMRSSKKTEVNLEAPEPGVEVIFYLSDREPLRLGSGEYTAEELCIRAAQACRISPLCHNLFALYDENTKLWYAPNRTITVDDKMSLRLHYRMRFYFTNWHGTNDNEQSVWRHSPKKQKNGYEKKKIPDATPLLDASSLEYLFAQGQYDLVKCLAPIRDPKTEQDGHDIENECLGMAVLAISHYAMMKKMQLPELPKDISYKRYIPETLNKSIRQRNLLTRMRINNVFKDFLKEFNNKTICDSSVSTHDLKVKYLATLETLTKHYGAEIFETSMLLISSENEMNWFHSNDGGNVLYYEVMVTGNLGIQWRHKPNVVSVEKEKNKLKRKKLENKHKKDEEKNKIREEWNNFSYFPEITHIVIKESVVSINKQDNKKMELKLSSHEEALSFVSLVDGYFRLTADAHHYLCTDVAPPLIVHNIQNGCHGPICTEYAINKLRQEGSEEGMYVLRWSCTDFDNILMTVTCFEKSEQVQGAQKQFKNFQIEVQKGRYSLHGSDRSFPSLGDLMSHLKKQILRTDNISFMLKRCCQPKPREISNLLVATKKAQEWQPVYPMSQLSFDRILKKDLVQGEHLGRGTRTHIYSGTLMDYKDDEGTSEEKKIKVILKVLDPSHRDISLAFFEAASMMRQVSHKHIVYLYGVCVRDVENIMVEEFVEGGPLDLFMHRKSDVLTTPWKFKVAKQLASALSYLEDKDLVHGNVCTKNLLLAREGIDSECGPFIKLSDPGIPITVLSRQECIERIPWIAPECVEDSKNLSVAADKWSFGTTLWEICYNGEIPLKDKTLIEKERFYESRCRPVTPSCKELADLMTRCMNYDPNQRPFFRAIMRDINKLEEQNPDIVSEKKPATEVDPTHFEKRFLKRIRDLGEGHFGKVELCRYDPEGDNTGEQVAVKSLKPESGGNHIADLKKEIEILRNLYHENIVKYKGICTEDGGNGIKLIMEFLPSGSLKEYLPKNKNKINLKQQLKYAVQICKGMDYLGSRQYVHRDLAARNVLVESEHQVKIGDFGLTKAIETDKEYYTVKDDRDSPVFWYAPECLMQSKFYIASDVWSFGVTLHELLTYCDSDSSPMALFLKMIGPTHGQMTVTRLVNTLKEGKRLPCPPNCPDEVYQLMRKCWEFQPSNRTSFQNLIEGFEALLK
EC50 [1],Ratio Ki [2],Ki [3],Structure (SMILES),further results
160 nM,8.4,3 nM,CC(=O)NCc1nc2cnc3[nH]ccc3c2n1C1CC2CCC1C2 (racemic),
1300 nM,1.5,24 nM,N#CCCN1CCC(n2c(CC3CCCO3)nc3cnc4[nH]ccc4c32)CC1 (racemic),
2600 nM,4.8,43 nM,N#CCCN1CCC(n2c(CC3CCOCC3)nc3cnc4[nH]ccc4c32)CC1,
2000 nM,4.5,16 nM,N#CCCN1CCC(n2c(CC3CCCC3)nc3cnc4[nH]ccc4c32)CC1,
570 nM,5.4,8.7 nM,N#CCCN1CCC(n2c(CCC3CCCO3)nc3cnc4[nH]ccc4c32)CC1 (racemic),
1500 nM,6.7,12 nM,CC(=O)NCc1nc2cnc3[nH]ccc3c2n1C1CCN(CC(F)(F)F)CC1,
275 nM,2.1,4.6 nM,CCCc1nc2cnc3[nH]ccc3c2n1C1CCN(CCC#N)CC1,
> 6500 nM,5.6,3.7 nM,CC(=O)NCCc1nc2cnc3[nH]ccc3c2n1C1CCN(CCC#N)CC1,
1800 nM,2.6,14 nM,N#CCCN1CCC(n2c(CCn3cccn3)nc3cnc4[nH]ccc4c32)CC1,
2600 nM,7.6,13 nM,Cn1ccc(CCc2nc3cnc4[nH]ccc4c3n2C2CCN(CCC#N)CC2)n1,
> 6000 nM,7,1.7 nM,CS(=O)(=O)NCCc1nc2cnc3[nH]ccc3c2n1C1CCN(CCC#N)CC1,
1200 nM,11,5.4 nM,CC(C)CS(=O)(=O)NCc1nc2cnc3[nH]ccc3c2n1C1CCN(CCC#N)CC1,
> 3800 nM,5.4,,CC(=O)NCc1nc2cnc3[nH]ccc3c2n1C1CCN(CCC#N)CC1,
4200 nM,8,28 nM,CS(=O)(=O)NCc1nc2cnc3[nH]ccc3c2n1C1CC2CCC1O2 (racemic),
625 nM,3.6,8.4 nM,CCOC(=O)NCc1nc2cnc3[nH]ccc3c2n1C1CCN(CCC#N)CC1,
410 nM,4.2,9.1 nM,CC(C)c1nc2cnc3[nH]ccc3c2n1C1CCN(CCC#N)CC1,
50 nM,10,0.6 nM,CS(=O)(=O)NCCc1nc2cnc3[nH]ccc3c2n1C1CC2CCC1C2 (racemic),
210 nM,,,CC(=O)NCCc1nc2cnc3[nH]ccc3c2n1C1CCCCC1,
,,,CS(=O)(=O)NCc1nc2cnc3[nH]ccc3c2n1[C@@H]1C[C@H]2CC[C@@H]1C2,bioavailability [4]: 79%; AUC [5]: 2.2 µM·h; half-life [6]: 1.5 h; Vd [7]: 4 L/kg; clearance [8]: 33 mL/min/kg; inhibition [9]: > 50%; inhibition [10]: > 50%; IC50 [11]: > 10000 nM; IC50 [12]: > 10000 nM; IC50 [13]: > 10000 nM; IC50 [14]: > 10000 nM; IC50 [15]: > 10000 nM; Papp A→B [16]: 8.2 ×10⁻⁶ cm/s; solubility [17]: 71 µM
430 nM,3.6,4.3 nM,N#CCCN1CCC(n2c(C3CCC3)nc3cnc4[nH]ccc4c32)CC1,
160 nM,1.8,,N#CCCN1CCC(n2c(C3CC3)nc3cnc4[nH]ccc4c32)CC1,
